Experimental data published in US20230167088A1, “1-PYRAZINYLPYRAZOLYL-3-OXYALKYL ACIDS AND THEIR DERIVATIVES, AND THEIR USE FOR CONTROL OF UNDESIRED PLANT GROWTH” (BAYER AKTIENGESELLSCHAFT, priority 2020, published 2023).

Key:
HORMU = test: Herbicidal post-emergence action 1a (greenhouse pots, visual rating); assay type: in vivo, Hordeum murinum; conditions: rated visually about 3 weeks after treatment, 100% = plants have died, 0% = like control plants
Method: [table] a) Seeds of monocotyledonous and dicotyledonous weeds and crop plants are placed in sandy loam in plastic or organic plant pots, covered with soil and cultivated in a greenhouse under controlled growth conditions. 2 to 3 weeks after sowing, the test plants are treated at the one-leaf stage. The compounds of the invention, formulated in the form of wettable powders (WP) or as emulsion concentrates (EC), are then sprayed onto the green parts of the plants as aqueous suspension or emulsion with addition of 0.5% additive at a water application rate of 600 1/ha (converted). After the test plants have been kept in the greenhouse under optimum growth conditions for about 3 weeks, the activity of the preparations is rated visually in comparison to untreated controls. For example, 100% activity=the plants have died, 0% activity=like control plants. Tables A1 to A15 below show the effects of selected compounds of the general formula (I) according to Tables 1 and 2 on various harmful plants and an application rate corresponding to 320 g/ha and/or 80 g/ha, which were obtained by the experimental procedure mentioned above.

ABUTH = test: Herbicidal pre-emergence action 2a (greenhouse pots, visual scoring); assay type: in vivo, Abutilon theophrasti; conditions: dosage 320 g/ha, visual scoring after about 3 weeks vs untreated controls
Excerpt: [table] a) Seeds of monocotyledonous and dicotyledonous weed plants and crop plants are placed in plastic or organic plant pots and covered with soil. The compounds of the invention, formulated in the form of wettable powders (WP) or as emulsion concentrates (EC), are then applied onto the surface of the covering soil as aqueous suspension or emulsion with addition of 0.5% additive at a water application rate of 600 1/ha (converted). After the treatment, the pots are placed in a greenhouse and kept under good growth conditions for the trial plants. After about 3 weeks, the effect of the preparations is scored visually in comparison with untreated controls as percentages. For example, 100% activity=the plants have died, 0% activity=like control plants. Tables B1 to B15 below show the effects of selected compounds of the general formula (I) according to Tables 1 and 2 on various harmful plants and an application rate corresponding to 320 g/ha and/or 80 g/ha, which were obtained by the experimental procedure mentioned above.

SMILES | Post-emergence action against HORMU in % (HORMU; Dosage 80 g/ha) | Post-emergence action against HORMU in % (HORMU; Dosage 320 g/ha) | Pre-emergence action against ABUTH in % (ABUTH)
COC(=O)C(C)Oc1nn(-c2cnccn2)c(-c2ccc(F)nc2)c1Br (racemic) [Example I-12] | 90% | 90% | –
COC(=O)[C@@H](C)Oc1nn(-c2cnccn2)c(-c2ccc(F)c(F)c2)c1C#N [Example I-46] | – | – | 80%
COC(=O)COc1nn(-c2cnccn2)c(-c2cncc(F)c2)c1Br [Example I-07] | 80% | 90% | –
COC(=O)[C@@H](C)Oc1nn(-c2cnccn2)c(-c2cncc(F)c2)c1Br [Example I-39] | – | – | 90%
COC(=O)C(C)Oc1nn(-c2cnccn2)c(-c2cncc(F)c2)c1Br (racemic) [Example I-08] | 80% | 90% | 80%
C[C@@H](Oc1nn(-c2cnccn2)c(-c2cccc(F)c2)c1Br)C(=O)O [Example I-48] | – | – | 100%
COC(=O)C(C)Oc1nn(-c2cnccn2)c(-c2ccnc(F)c2)c1Cl (racemic) [Example I-05] | – | 90% | –
COC(=O)C(C)Oc1nn(-c2cnccn2)c(-c2ccnc(F)c2)c1Br (racemic) [Example I-10] | 80% | 80% | –
